Drawing on patent US12162878B2 (HINOVA PHARMACEUTICALS INC., priority 2018, dated 2024), this text covers IC50 for four compounds.

The target of one assay is BRD2(1,2) (Homo sapiens (Human), UniProt P25440). The assay is described as follows: AlphaScreen binding of compounds on BRD2 (D1+D2). The conditions noted are these: read-out: IC50 against BRD2(1,2). From the text:
(§1) Homogeneous time-resolved fluorescence technology (HTRF) was used to determine the binding effect of compounds on BRD4 (D1+D2) and BRDT (D1) proteins, as well as AlphaScreen method was used to detect the binding effect of compounds on BRD2 (D1+D2) and BRD3 (D1+D2) proteins.
(§2) The compounds were screened in vitro, and each compound was serially diluted to 10 concentrations. Four proteins BRD4 (D1+D2), BRDT (D1), BRD2 (D1+D2) and BRD3 (D1+D2) were chosen to determine the IC50 values of compounds (see Table 1).
(§3) 4. Compound treatment: The test compound was dissolved in dimethyl sulfoxide (DMSO), and the storage concentration was 10 mM.
(§4) 6. AlphaScreen Detection Procedures:
(§5) 1) Preparing One-Fold Concentration of Detection Buffer
(§6) One-fold concentration of detection buffer was prepared (Improved HEPES buffer)
(§7) 2) Gradient Dilution of Compounds
(§8) Echo automatic sampler was used to transfer the compound to the detection plate for gradient dilution, so that the final concentration of dimethyl sulfoxide was 0.1%.
(§9) 3) Preparation of Protein Solution
(§10) The protein was dissolved in one-fold concentration of detection buffer.
(§11) 4) Preparation of Substrate Solution
(§12) The peptide was dissolved in one-fold concentration of detection buffer to prepare the substrate solution.
(§13) 5) 5 μL protein solution was transferred to the detection plate, and one-fold concentration of detection buffer (5 μL) was placed in the negative control wells.
(§14) 6) The plate was incubated for 15 min at room temperature.
(§15) 7) 5 μL substrate solution was added to each well to start the reaction.
(§16) 8) The plate was incubated for additional 60 min at room temperature.
(§17) 9) Preparation of acceptor solution and donor solution in one-fold concentration of assay buffer Acceptor solution (15 μL) and donor solution (15 μL) were respectively added, and then incubated at room temperature for 60 min and protected against exposure to light.
(§18) 10) The endpoint was read in EnSpire and Alpha mode.
(§19) The experimental data were recorded in an Excel file and equation (1) was used to get the inhibition rate. Inh%=(Max−Signal)/(Max−Min)*100 Equation (1):
(§20) The obtained data were input into GraphPad software, and equation (2) was used to obtain the IC50 value. Y=Bottom+(Top−Bottom)/(1+10^((Log IC50−X)*Hill Slope)) Formula (2): […]
(§21) Wherein, Y axis was the inhibition rate, and the X axis was the compound concentration.

A further assay addresses BRD4(1,2) (Homo sapiens (Human), UniProt O60885). Put plainly: HTRF binding of compounds on BRD4 (D1+D2). The following applies: read-out: IC50 against BRD4(1,2).
Excerpt: as §1, §2, §3
(§22) 5. Steps for Homogeneous Time-Resolved Fluorescence Detection:
(§23) 1) According to the arrangement of the detection plate, all compounds were diluted in Echo plate.
(§24) The final dilution concentration of DMSO is 0.1%.
(§25) 2) The compound or DMSO was transferred to a 384-well detection plate with the Echo automatic sampler.
(§26) 3) Two-fold concentration of the mixture of protein and peptide was added to the detection plate.
(§27) 4) Two-fold concentration of mixed detection solution was added to the test plate, and shaken for 30 s.
(§28) 5) Incubating for 2 h at room temperature.
(§29) 6) Fluorescence signal was read on Envision multi-function microplate reader (excitation light wavelength being 340 nm, and emission light wavelength being 615 nm and 665 nm).
(§30) The experimental data were recorded in an Excel file, and equation (1) was used to obtain the inhibition rate. Inh%=(Max−Signal)/(Max−Min)*100 Equation (1):
(§31) The obtained data was recorded in GraphPad software, and equation (2) was used to provide the IC50 values. Y=Bottom+(Top−Bottom)/(1+10^((Log IC50−X)*Hill Slope)) Equation (2): […]
(§32) Y axis was the inhibition rate, and X axis was the compound concentration.

In another assay the target is BRD3(1,2) (Homo sapiens (Human), UniProt Q15059). Put plainly: AlphaScreen binding of compounds on BRD3 (D1+D2). The following applies: read-out: IC50 against BRD3(1,2).
Excerpt: as §1, §2, §3, §4, §5, §6, §7, §8, §9, §10, §11, §12, §13, §14, §15, §16, §17, §18, §19, §20, §21
In general terms: Alpha assays give light when donor and acceptor beads are brought close together.

The target of a further assay is BRDT(D1) (Homo sapiens (Human), UniProt Q58F21). Put plainly: HTRF binding of compounds on BRDT (D1). The following applies: read-out: IC50 against BRDT(D1).
Excerpt: as §1, §2, §3, §22, §23, §24, §25, §26, §27, §28, §29, §30, §31, §32

The next assay has as its system CWR22RV1 cells. Put plainly: Inhibition of proliferation of CWR22RV1 cells (CCK-8). The conditions noted are these: 6 days. Type of assay: cell-based, human. In short, it runs like this:
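Cells seeded at 1500/well, cultured overnight, then exposed to compounds in 3-fold dilutions (9 concentrations from 10 μM top final, 0.1% DMSO) for 6 days at 37 °C. Viability read by CCK-8 absorbance at 450 nm after 2.5 h; IC50 from dose-response inhibition fit.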

pIC50: −log10 of the molar value.

BRD3(1,2), sequence (Q15059 29-417): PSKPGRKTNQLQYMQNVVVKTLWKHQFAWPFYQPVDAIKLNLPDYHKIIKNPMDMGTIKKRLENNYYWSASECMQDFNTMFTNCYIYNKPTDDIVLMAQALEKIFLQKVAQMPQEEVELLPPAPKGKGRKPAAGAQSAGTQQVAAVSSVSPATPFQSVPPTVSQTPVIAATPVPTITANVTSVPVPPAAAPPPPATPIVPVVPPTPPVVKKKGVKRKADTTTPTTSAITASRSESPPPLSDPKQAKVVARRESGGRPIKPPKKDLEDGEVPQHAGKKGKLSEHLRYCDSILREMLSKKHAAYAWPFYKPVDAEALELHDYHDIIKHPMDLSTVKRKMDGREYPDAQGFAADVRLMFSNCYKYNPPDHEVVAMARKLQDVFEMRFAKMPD
BRD2(1,2), sequence (P25440 65-459): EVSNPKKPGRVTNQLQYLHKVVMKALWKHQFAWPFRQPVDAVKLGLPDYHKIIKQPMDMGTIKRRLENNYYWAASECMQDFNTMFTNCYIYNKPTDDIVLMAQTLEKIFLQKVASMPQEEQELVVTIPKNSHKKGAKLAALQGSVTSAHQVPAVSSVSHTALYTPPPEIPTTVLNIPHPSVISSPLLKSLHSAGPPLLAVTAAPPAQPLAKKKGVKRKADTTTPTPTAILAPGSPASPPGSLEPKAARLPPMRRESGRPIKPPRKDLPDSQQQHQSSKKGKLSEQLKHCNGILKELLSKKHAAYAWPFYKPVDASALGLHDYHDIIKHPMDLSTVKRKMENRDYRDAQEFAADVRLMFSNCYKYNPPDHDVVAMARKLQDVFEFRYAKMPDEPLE

One may read the pIC50 as −log10 of the IC50, conventionally taken in molar units. For the compound `[2H]C([2H])([2H])n1cc(-c2cc(S(=O)(=O)N3CC[C@H](O)C3)ccc2N2CCC3(CC2)CC3(F)F)c2cc[nH]c2c1=O` [Compound 241, (S)-4-(2-(1,1-difluoro-6-aza-spiro[2.5]octan-6-yl)-5-((3-hydroxylpyrrolidin-1-yl)sulfonyl)phenyl)-6-trideuteromethyl-1H-pyrrolo[2,3-c]pyridin-7(6H)-one], the pIC50 was 8.92 on BRD2(1,2); 8.24 on BRD4(1,2); 8.39 on BRD3(1,2); 7.77 on BRDT(D1); 8.77 in the assay with CWR22RV1 cells (Homo sapiens, CWR22Rv1, 144 h).
With `[2H]C([2H])([2H])n1cc(-c2cc(S(=O)(=O)N3CC[C@@H](O)C3)cnc2N2CCC3(CC2)CC3)c2cc[nH]c2c1=O` [Compound 242], the pIC50 at BRD2(1,2) was 8.82; at BRD4(1,2), 8.00; on BRD3(1,2), 8.28; on BRDT(D1), 7.72; in the assay with CWR22RV1 cells (Homo sapiens, CWR22Rv1, 144 h), 8.66.
In the same order, the values of `[2H]C([2H])([2H])n1cc(-c2cc(S(=O)(=O)N3CC[C@H](O)C3)cnc2N2CCC3(CC2)CC3)c2cc[nH]c2c1=O` [Compound 243] are 8.85, 8.05, 8.28, 7.72 and 8.89.
`[2H]C([2H])([2H])n1cc(-c2cc(S(=O)(=O)CC)ccc2N2CCC3(CC2)CC3(F)F)c2cc[nH]c2c1=O` [Compound 250, 4-(2-(1,1-difluoro-6-aza-spiro[2.5]octan-6-yl)-5-(ethylsulfonyl)phenyl)-6-trideuteromethyl-1H-pyrrolo[2,3-c]pyridin-7(6H)-one]: the pIC50 at BRD2(1,2) is 8.82; on BRD4(1,2), 8.37; at BRD3(1,2), 8.39; at BRDT(D1), 7.82; with CWR22RV1 cells, 6.92.
